In patent EP0583821A1, “Atriopeptins, guanylate cyclase activators, and phosphodiesterase inhibitors as treatment for glaucoma, hydrocephalus and cerebral edema (cranial fluid volume dysfunction)” (THE GENERAL HOSPITAL CORPORATION, priority 1987, dated 1988):

What was measured:
[1] = target: T1, guanylate cyclase (Oryctolagus cuniculus, UniProt G1TXB5); test: rANP activation of guanylate cyclase in membrane fractions of whole choroid plexus; format: biochemical, rabbit; parameters: tissues were homogenized (10 mg wet weight per milliliter); from tissue; host or cells: rabbit cerebral microvessels, choroid plexus, kidney, ciliary process, pia-arachnoid, cerebellum; 100,000 g P1 pellet
T1 sequence (G1TXB5 28-1056): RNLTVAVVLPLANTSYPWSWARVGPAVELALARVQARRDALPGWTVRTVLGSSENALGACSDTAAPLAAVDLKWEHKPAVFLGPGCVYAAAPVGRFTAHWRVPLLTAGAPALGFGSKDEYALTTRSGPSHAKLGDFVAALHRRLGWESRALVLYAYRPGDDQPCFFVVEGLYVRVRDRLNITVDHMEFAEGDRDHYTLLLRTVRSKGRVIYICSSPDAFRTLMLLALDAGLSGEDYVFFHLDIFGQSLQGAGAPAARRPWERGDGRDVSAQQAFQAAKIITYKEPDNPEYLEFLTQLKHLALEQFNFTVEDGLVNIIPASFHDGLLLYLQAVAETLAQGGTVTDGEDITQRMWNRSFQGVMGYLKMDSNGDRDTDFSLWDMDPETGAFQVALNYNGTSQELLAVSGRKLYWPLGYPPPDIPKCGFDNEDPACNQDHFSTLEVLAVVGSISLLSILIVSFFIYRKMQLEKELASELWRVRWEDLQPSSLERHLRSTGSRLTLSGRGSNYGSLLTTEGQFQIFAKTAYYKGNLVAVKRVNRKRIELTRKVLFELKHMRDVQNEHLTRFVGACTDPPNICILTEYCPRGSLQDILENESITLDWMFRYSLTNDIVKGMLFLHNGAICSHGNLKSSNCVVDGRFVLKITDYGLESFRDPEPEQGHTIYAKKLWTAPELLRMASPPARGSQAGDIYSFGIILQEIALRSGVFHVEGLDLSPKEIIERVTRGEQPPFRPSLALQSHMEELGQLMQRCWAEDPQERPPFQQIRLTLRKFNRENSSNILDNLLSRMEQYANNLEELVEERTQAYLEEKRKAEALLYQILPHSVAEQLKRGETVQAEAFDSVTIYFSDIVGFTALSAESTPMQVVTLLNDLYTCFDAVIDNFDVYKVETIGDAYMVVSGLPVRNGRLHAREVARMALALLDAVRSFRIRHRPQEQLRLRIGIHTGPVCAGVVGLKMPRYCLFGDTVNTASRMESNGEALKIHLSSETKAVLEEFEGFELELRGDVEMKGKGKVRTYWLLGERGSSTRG
Protocol: (§1) The effect of rANP on membrane-bound guanylate cyclase and adenylate cyclase activity in various brain-barrier tissues and tissue fractions from rabbit was compared with its activity in cerebrum and cerebellum. Guanylate cyclase was measured as the rate of cyclic GMP formation by modifications of the technique of Waldman et al., supra, incorporated herein by reference. Briefly, tissues were homogenized (10 mg wet weight per milliliter) in 50 mM tris-HCl, pH 8.0, 1 mM EDTA, 1 mM dithiothreitol, and 250 mM sucrose and centrifuged at 100,000g to obtain a P1 pellet. Reaction tubes contained (in 0.3 ml), 50 mM tris, pH 7.6, 6 mM MnCl₂, 0.5 mM 3-isobutyl, 1-methylxanthine (IBMX), 10 mM theophylline, 3 mM GTP, hormone (in 0.03 ml containing 2.5 mM ascorbic acid and 0.1% bovine serum albumin), and 0.06 ml of P1 fraction (40 to 60 ug of protein). The reaction (4 minutes at 30°C) was started by addition of GTP and terminated by addition of 0.3 ml of 150 mM sodium acetate (pH 4.0) and boiling for 3 minutes. Cyclic GMP formed was subsequently measured by radioimmunoassay as described in example 6, infra. Under these conditions, guanylate cyclase activity was linear with time and tissue concentration. Adenylate cyclase activity in P1 fractions was measured according to the method described by Nathanson, et al., Science; 204:843 (1979); Mol. Pharmacol. 18:199 (1980), see Figure 1C . […] Neurosci. Abstr., 10, 899 (1984); Nathanson, et al., Soc. Neurosci. Abstr., 12, 1257 (1986), incorporated herein by reference, but with a lower concentration (0.025%) of trypsin and a rotating tissue tumbler which allowed cleaner fractionation of epithelial cells from erythrocytes and vascular components.
Adenylate cyclase activity could be stimulated by isoproterenol through β-adrenergic receptors known to be present in this tissue. Values shown are the mean ± range for duplicate enzyme determinations, each assayed for cyclic AMP or cyclic GMP in triplicate. […]

[2] = target: T1, guanylate cyclase; test: rANP activation of membrane-bound guanylate cyclase in purified cerebral microvessels; format: biochemical; parameters: tissues were homogenized (10 mg wet weight per milliliter); from tissue; host or cells: rabbit cerebral microvessels, choroid plexus, kidney, ciliary process, pia-arachnoid, cerebellum; 100,000 g P1 pellet; details: purified rabbit cerebral microvessels, Fig. 1a
Protocol: as §1, with “Abstr., 10, 899 (1984); Nathanson, et al., Soc. Neurosci. Abstr., 12, 1257 (1986), incorporated herein by reference, but with a lower concentration (0.025%) of trypsin and a rotating tissue tumbler which allowed cleaner fractionation of epithelial cells from erythrocytes and vascular components.” left out

[3] = system: guanylate cyclase; test: Ciliary process guanylate cyclase activity (Tables 2 and 3); format: biochemical
[4] = system: guanylate cyclase; test: Guanylate cyclase in pia-arachnoid preparation; format: biochemical, rabbit
Protocol: as §1, with “Abstr., 10, 899 (1984); Nathanson, et al., Soc. Neurosci. Abstr., 12, 1257 (1986), incorporated herein by reference, but with a lower concentration (0.025%) of trypsin and a rotating tissue tumbler which allowed cleaner fractionation of epithelial cells from erythrocytes and vascular components.” left out

## rANP 13-28 (DRIGAQSGLGCNSFRY; Atrial natriuretic peptide; UniProt P01161 135-150, looked up, fragment)
[1]; choroid plexus
  stimulation of guanylate cyclase: almost no stimulation

## Ser-Leu-Arg-Arg-atriopeptin III (APIII) [rANP 1-28]
[2]
  maximum velocity of enzyme activity (Vmax): 215 % of control
[3]; Table 2, 10⁻⁶M
  CILIARY PROCESS GUANYLATE CYCLASE ACTIVITY (Percent Increase): 60 ± 27 Percent Increase
[3]; Table 3, concentration not given
  CILIARY PROCESS GUANYLATE CYCLASE ACTIVITY (Percent Increase): 74 Percent Increase
[1]; choroid plexus, SEM, N = 5
  Vmax for stimulation of basal activity: 58% ± 16%
[1]; whole choroid plexus, five separate experiments, SEM, 4 min
  Ka for activation of the enzyme: 9.8 ± 5.1 nM
[4]
  degree of enzyme stimulation: 15%
